For the data set the following is noted: in DMF.

Molecules are shown by their SMILES.

By solubility (mole fraction) is commonly meant the moles of solute divided by all moles in the saturated solution. Regarding `C1=Cc2nc1c(-c1ccccc1)c1ccc([nH]1)c(-c1ccccc1)c1nc(c(-c3ccccc3)c3ccc([nH]3)c2-c2ccccc2)C=C1`, the solubility (mole fraction) came to 9.76e-05 (303.2 K); 0.000107 (313.2 K); 0.00012 (323.2 K); 0.000136 (333.2 K); 0.000166 (343.2 K).

`Clc1ccc(-c2c3nc(c(-c4ccc(Cl)cc4)c4ccc([nH]4)c(-c4ccc(Cl)cc4)c4nc(c(-c5ccc(Cl)cc5)c5ccc2[nH]5)C=C4)C=C3)cc1`: the solubility (mole fraction) is 2.64e-05 (303.2 K); 3.51e-05 (313.2 K); 4.56e-05 (323.2 K); 6.16e-05 (333.2 K); 8.67e-05 (343.2 K); 0.000122 (353.2 K).

The record behind these values is BigSolDB 2.1.
